A short description of series [1]: Rat PK test (liver concentrations of active metabolites after oral prodrug). The class given is in vivo, Wistar rat. How it is done:
The test was carried out according to the following protocol. • Animal: […] (Method of Analysis) Using LC-MS/MS (API 4000), standard curves for standard compounds were prepared, and the concentrations of the active metabolites No. 5514403 and No. 5526064 at the data points were calculated.

Series [2] has as its system firefly luciferase HCV replicon cells (Huh3-1). Nature of the series: Replicon assay (firefly luciferase HCV replicon cells). The series is classed as cell-based, Hepatitis C virus. The settings on record: for IC50: Hepatitis C virus, 72 h, Huh3-1 replicon cells, 3 days culture, luciferase readout, read-out: Anti-replicon Activity (IC50); for IC50 of antireplicon activity converted to: unit converted assuming liver specific gravity 1 g=1 mL (FIGS. 1 to 3).
Description: As a reporter gene, for example, a gene into which a luciferase gene derived from a firefly is introduced can be used. Specifically, according to the method of Krieger et al. (N. Krieger et al., J. Virology: 75, 4614-24, 2001), a firefly luciferase gene is introduced, in a form fused with a neomycin-resistant gene, immediately downstream of an internal ribosome entry site (IRES) of the HCV gene. After synthesizing the RNA in vitro, it is introduced into suitable cells by, for example, electroporation to obtain firefly luciferase HCV replicon cells. These cells are seeded in wells of 96-well plates, to which a diluted test substance is added, and cultured for several days. The substrate is then added, and the luminescence is measured with a plate reader.
According to the method of Krieger et al. (N. Krieger et al., J. Virology: 75, 4614-24, 2001), a firefly luciferase gene was introduced, in a form fused with a neomycin-resistant gene, immediately downstream of an internal ribosome entry site (TRES) of the HCV gene. After synthesizing the RNA in vitro, it was introduced into Huh7 cells by electroporation and the cells were isolated as G418-resistant clones.
After culturing, the white plates were used for the replicon assay with Steady-Glo Luciferase Assay System (Promega cat. No. E2520). More specifically, 100 μL per well of the reagent was added, it was mixed 3-4 times by pipetting and allowed to stand for 5 minutes, and subsequently the luminescence was measured with a plate reader (EnVision™ 2103 Multilabel Reader).

For series [3], the target named is CYP3A4 (Homo sapiens (Human), UniProt P08684). Nature of the series: biochemical. The class given is in vitro ADME. Conditions: for IC50: human liver microsomes, midazolam 0.5 μmol/L; for CYP Inhibition Time Dependent (TDI) (untreated/Pre-incubation), CYP3A4: microsomes. How it is done:
(§1) <Incubation Mixture> • 100 mM phosphate buffer (pH 7.4) • 0.1 mg/mL of pooled human liver microsomes (male and female mixture, a pool of 50 donors) <NADPH Aqueous Solution> • 10 mM NADPH (final concentration 1 mM NADPH) <Measurement of Metabolite>
Warfarin was used as internal standard (IS).
To a 96 deep well plate was added 2.5 μL, of the test substance solution (×200 concentration), 442.5 μL of Incubation Mixture, and 5 μL of the substrate solution, and the solution was mixed and warmed to 37° C. for 5 minutes. To this incubation solution 50 μL of 10 mM NADPH was added to start the reaction, and incubated at 37° C. for 5 minutes. After the incubation, 100 μL of the Incubation Mixture was removed, added to 150 μL of isopropanol containing IS and mixed. […] The filtrate was used for LC-MS/MS analysis.
To a 96 deep well plate was added 2.5 μL of the test substance solution (×200 concentration), and 442.5 μL of Incubation Mixture, and the solution was mixed and warmed to 37° C. for 5 minutes. To this incubation solution 50 μL of 10 mM NADPH was added and preincubated at 37° C. for 30 minutes. […] After the reaction, 100 μL of the Incubation Mixture was removed, added to 150 μL of isopropanol containing IS and mixed. […] The filtrate was used for LC-MS/MS analysis.
(§2) Based on the metabolite production of the DMSO control group defined as 100, percent inhibitions of the metabolite production in the test substance group were determined, and inhibition curves were plotted at 5 concentrations. The test substance concentration showing 50% inhibition (IC50) was determined from the fitting curve of the inhibition curve.

A short description of series [4]: Cytotoxicity test (WST-8). The series is classed as cell-based. The settings on record: human, firefly luciferase HCV replicon cells (Huh3-1); Huh3-1 replicon cells, 3 days culture, Cell counting kit-8; read-out: Cytotoxicity WST8 (IC50). How it is done: The firefly luciferase HCV replicon cells (Huh3-1) were suspended in Dulbecco's MEM (Gibco cat. No. 10,569-010) containing 5% fetal bovine serum (Hyclone cat. No. SH30071.03), seeded at 4500 cells/90 μL/well in 96-well plates, and cultured overnight in 5% CO2 at 37° C. After 20 hours, 10 μL per well of compounds prepared at a concentration 10 times the final concentration were added, and they were further cultured for 3 days.
Two series of assay plates, one series of white plates and another series of clear plates, were prepared and used for the assay.
Clear plates were used for a cytotoxicity test (WST-8). Cytotoxicity was measured using Cell counting kit-8 (Dojindo cat. No. CK04). More specifically, 100 μL of Cell counting kit-8 diluted 10-fold from the stock solution with PBS (SIGMA cat. No. D8537) was added to each well in the aforementioned clear plates from which medium was removed and the plates were incubated at 37° C. for 30 to 60 minutes. Absorbance was measured at a wavelength of 460 nm and a control wavelength of 590 nm by a plate reader (EnVision™ 2103 Multilabel Reader). All values were expressed as differences from the background which was measured with neither cells nor drug and IC50 (50% inhibitory concentration) values of drugs were calculated based on the value when no drug was added defined as 0% inhibition.

The target in series [5] is CYP2C9 (Homo sapiens (Human), UniProt P11712). Nature of the series: biochemical. The settings on record: for IC50: human liver microsomes, diclofenac 0.2 μmol/L; for TDI Ratio, CYP2C9: microsomes. How it is done: Tests were carried out according to the following experiment method.
Chain of CYP2C9 (P11712 whole entry): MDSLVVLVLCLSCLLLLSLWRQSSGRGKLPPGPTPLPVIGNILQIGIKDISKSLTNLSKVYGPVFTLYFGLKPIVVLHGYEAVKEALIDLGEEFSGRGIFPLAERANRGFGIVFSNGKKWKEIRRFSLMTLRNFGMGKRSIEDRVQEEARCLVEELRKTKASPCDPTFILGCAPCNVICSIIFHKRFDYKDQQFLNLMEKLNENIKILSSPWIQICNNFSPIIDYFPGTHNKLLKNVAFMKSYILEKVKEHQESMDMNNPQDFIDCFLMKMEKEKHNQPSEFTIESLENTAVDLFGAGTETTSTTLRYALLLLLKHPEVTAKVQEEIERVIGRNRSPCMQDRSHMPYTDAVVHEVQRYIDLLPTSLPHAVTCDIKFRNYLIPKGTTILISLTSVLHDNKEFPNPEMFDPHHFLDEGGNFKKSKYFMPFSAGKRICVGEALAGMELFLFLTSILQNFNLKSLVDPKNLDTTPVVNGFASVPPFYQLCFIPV
as §1
After incubation, the concentrations of the produced metabolites were measured using LC-MS/MS (API4000 or 5500QTRAP). Warfarin was used as internal standard (IS). The concentration was calculated using a standard curve created using a metabolite standard solution.
To a 96 deep well plate was added 2.5 μL, of the test substance solution (×200 concentration), 442.5 μL of Incubation Mixture, and 5 μL of the substrate solution, and the solution was mixed and warmed to 37° C. for 5 minutes. To this incubation solution 50 μL of 10 mM NADPH was added to start the reaction, and incubated at 37° C. for 5 minutes. After the incubation, 100 μL of the Incubation Mixture was removed, added to 150 μL of isopropanol containing IS and mixed. This mixture was transferred onto a multi-screen filter, centrifuged at 500×g at 4° C. for 10 minutes. The filtrate was used for LC-MS/MS analysis.
To a 96 deep well plate was added 2.5 μL of the test substance solution (×200 concentration), and 442.5 μL of Incubation Mixture, and the solution was mixed and warmed to 37° C. for 5 minutes. To this incubation solution 50 μL of 10 mM NADPH was added and preincubated at 37° C. for 30 minutes. After the preincubation, 5 μL of the substrate solution was added and the solution was mixed and further incubated at 37° C. for 5 minutes for the reaction. After the reaction, 100 μL of the Incubation Mixture was removed, added to 150 μL of isopropanol containing IS and mixed. This mixture was transferred onto a multi-screen filter, centrifuged at 500×g at 4° C. for 10 minutes. The filtrate was used for LC-MS/MS analysis.
as §2
Time dependent inhibition (TDI) was calculated as a ratio of dividing IC50 of the sample without preincubation treatment by the IC50 value measured after the preincubation treatment.

Setting [6] is: rat liver, prodrug p.o. 30 mg/kg once a day, 7 days.
The mark [7] stands for this setting: CYP3A4 (IC50 μM) Pre-incubation, 30 min preincubation with NADPH.
Where [8] appears, read: CYP3A4 (IC50 μM) untreated, without preincubation.
[9] abbreviates: CYP2C9 (IC50 μM) Pre-incubation, 30 min preincubation with NADPH.
The mark [10] stands for this setting: CYP2C9 (IC50 μM) untreated, without preincubation.
[11] abbreviates: rat liver, 24 hours after dosing, prodrug p.o. 30 mg/kg once a day, 7 days.

Each structure is given as a SMILES string.

Chain of CYP3A4 (P08684 whole entry): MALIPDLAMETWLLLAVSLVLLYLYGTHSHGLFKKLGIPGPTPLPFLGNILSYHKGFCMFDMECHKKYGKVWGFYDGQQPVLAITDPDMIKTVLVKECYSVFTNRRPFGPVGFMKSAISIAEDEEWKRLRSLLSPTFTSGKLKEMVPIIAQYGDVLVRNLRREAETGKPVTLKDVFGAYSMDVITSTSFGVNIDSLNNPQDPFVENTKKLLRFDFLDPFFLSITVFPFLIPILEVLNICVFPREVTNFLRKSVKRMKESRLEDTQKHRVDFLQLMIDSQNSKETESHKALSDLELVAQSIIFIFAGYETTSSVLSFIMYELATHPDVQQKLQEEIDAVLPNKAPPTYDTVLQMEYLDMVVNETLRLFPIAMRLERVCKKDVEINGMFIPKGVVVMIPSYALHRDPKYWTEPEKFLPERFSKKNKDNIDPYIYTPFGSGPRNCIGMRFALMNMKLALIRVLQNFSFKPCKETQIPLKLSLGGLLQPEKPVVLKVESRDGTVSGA

As to `CCCCCCCC(F)(F)CCCCCC/C=C/[C@H](C(=O)N[C@@H](Cc1ccc(OCCCC)cc1)C(=O)OC)[C@@](O)(CCOC)C(=O)OC` [No. 6809532, Methyl (E)-(2S,3S)-3-[(S)-2-(4-butoxy-phenyl)-1-methoxycarbonyl-ethylcarbamoyl]-12,12-difluoro-2-hydroxy-2-(2-methoxy-ethyl)-nonadec-4-enoate, reference compound], the “presence of the active compound No. 5514403 in the liver” value in series [1] (setting [6]) is “hardly detected”.
For `CCCCCCCC(F)(F)CCCCCC/C=C/[C@H](C(=O)N[C@@H](Cc1ccc(OCCCC)cc1)C(=O)OC)[C@@](O)(CCOC)C(=O)O` [No. 5514403, (E)-(2S,3S)-3-[(S)-2-(4-butoxy-phenyl)-1-methoxycarbonyl-ethylcarbamoyl]-12,12-difluoro-2-hydroxy-2-(2-methoxy-ethyl)-nonadec-4-enoic acid], the IC50 in series [2] came out at 0.0006 µM; in series [3] (setting [7]), 11.9 µM; in series [3] (setting [8]), 23.8 µM; in series [5] (setting [9]), 19.6 µM; in series [5] (setting [10]), 7.7 µM. Further, the “IC50 of antireplicon activity converted to” value in series [2] is given as 0.48 ng/g. Moreover, the “CYP Inhibition Time Dependent (TDI) (untreated/Pre-incubation), CYP3A4” value in series [3] is listed as 1.98. In addition, the IC50 at 3 days in series [4] was over 1 µM. The “TDI Ratio, CYP2C9” value in series [5] amounted to 0.39.
Take `CCCCCCCC(F)(F)CCCCCC/C=C/[C@H](C(=O)N[C@@H](Cc1ccc(OCCCC)cc1)C(=O)O)[C@@](O)(CCOC)C(=O)O` [No. 5526064, (E)-(2S,3S)-3-[(S)-2-(4-butoxy-phenyl)-1-carboxy-ethylcarbamoyl]-12,12-difluoro-2-hydroxy-2-(2-methoxy-ethyl)-nonadec-4-enoic acid]: the IC50 in series [2] worked out at 0.00215 µM; in series [3] (setting [7]) it was 11.8 µM; in series [3] (setting [8]), 16.2 µM; in series [5] (setting [9]) it was 24.4 µM; in series [5] (setting [10]), 12.5 µM. For the same compound, the “IC50 of antireplicon activity converted to” value in series [2] was found to be 1.44 ng/g. For the same compound, in series [3], the “CYP Inhibition Time Dependent (TDI) (untreated/Pre-incubation), CYP3A4” value worked out at 1.37. In addition, in series [4], the IC50 at 3 days was over 1 µM. For the same compound, the “TDI Ratio, CYP2C9” value in series [5] is given as 0.51.
Take `CCCCCCCC(F)(F)CCCCCC/C=C/[C@H](C(=O)N[C@@H](Cc1ccc(OCCCC)cc1)C(=O)OC)[C@@](O)(CCOC)C(=O)OCc1oc(=O)oc1C` [No. 6808755, (5-methyl-2-oxo-[1,3]dioxol-4-yl)methyl (E)-(2S,3S)-3-[(S)-2-(4-butoxy-phenyl)-1-methoxycarbonyl-ethylcarbamoyl]-12,12-difluoro-2-hydroxy-2-(2-methoxy-ethyl)-nonadec-4-enoate]: in series [1] (setting [11]), the “concentration of active compound No. 5514403 in the liver” value is at least 100 ng/g and the “concentration of active metabolite No. 5526064 in the liver” value is on record as at least 100 ng/g. Besides, the “exposure of the liver to the active drugs” value in series [1] (rat, p.o., in comparison with No. 6809532 and No. 6811559) is recorded as “significantly higher exposure of the liver to the active drugs”.
Regarding `CCCCCCCC(F)(F)CCCCCC/C=C/[C@H](C(=O)N[C@@H](Cc1ccc(OCCCC)cc1)C(=O)OC)[C@@](O)(CCOC)C(=O)OCC(=O)OC` [No. 6811559, Methoxycarbonylmethyl (E)-(2S,3S)-3-[(S)-2-(4-butoxy-phenyl)-1-methoxycarbonyl-ethylcarbamoyl]-12,12-difluoro-2-hydroxy-2-(2-methoxy-ethyl)-nonadec-4-enoate, reference compound], in series [1] (setting [6]), the “presence of the active compound No. 5514403 in the liver” value is “hardly detected”.

Source of the values: patent publication US9266853B2, “Orally available viridiofungin derivative possessing anti-HCV activity” (Chugai Seiyaku Kabushiki Kaisha, priority 2012, dated 2016).
